Source: US12258554B2 (priority 2014, dated 2025)
pIC50: −log10 of the molar value. Values joined by “and” are separate entries in the source; they are usually repeats but may differ in a detail not shown here. Equal entries are not always repeated. Where two headings read alike, the source gives them in different places. Where a SMILES comes first, the peptide text is derived from it. Bridges are numbered along the chain shown (N, C = ends). [ ]: non-standard residue; d: D form. The star is where a group is joined. ξ: configuration not given here. Pentadecanoyl(3ξ-OH,15-Gua) = N=C(N)NCCCCCCCCCCCCC(O)CC(=O)*; d(aThr) = C[C@@H](O)[C@@H](N)C(=O)O; Thr(3ξ) = CC(O)[C@H](N)C(=O)O; ξY = NC(Cc1ccc(O)cc1)C(=O)O

Key:
[1] = tested on: Phytophthora infestans (PHYTIN); assay type: in vivo; settings: for % efficacy PHYTIN: in planta, 360 ppm, assessed 5-7 days after inoculation; for % efficacy (% fungal attack): late blight on tomato, protective application, metabolite conc. 7.2 ppm, visually assessed 5-7 days after inoculation
[2] = tested on: Botrytis cinerea (BOTRCI); settings: in vivo
[3] = tested on: Phakopsora pachyrhizi (PHAKPA); settings: in vivo
[4] = tested on: Septoria tritici (SEPTTR); test: Glasshouse test, speckled leaf blotch on wheat, protective application; assay type: in vivo; settings: metabolite conc. 360 ppm
Method: Commercially available young wheat seedlings were used for the described greenhouse trial. 2 replications (pots with 1 plant each) were used per treatment. Plants were grown in commercially available substrate (Universal, Floragard) at approx. 22° C. in the greenhouse. The humidity was controlled using a special device (˜90% humidity). The plants were sprayed to runoff with crude culture broth of 2-6 days old cultures of Paenibacillus spp. (depending on the setup) using a spray cabinet. Culture conditions are described in Example 3. One day after application the treated plants were inoculated with a suspension of spores of Septoria tritici (SEPTTR). After inoculation, the trial plants were immediately transferred to a humid chamber. The extent of fungal attack on the leaves was visually assessed 21-28 days after inoculation.

[5] = tested on: Alternaria solani (ALTESO); test: Fungal growth assay in 96 well plates; assay type: cell-based; settings: OD 600 nm, YBG, about 18° C.
Method: (§1) Fungal growth assays were performed in 96 well plates with spore suspension of the pathogen Botrytis cinerea (BOTRCI, in YBA [10 g Bacto peptone (Becton Dickinson 211677), 10 g yeast extract (Becton Dickinson 212750), 20 g sodium acetate, ad 1000 mL aqua bidest] or Alternaria solani (ALTESO, in YBG [10 g Bacto peptone (Becton Dickinson 211677), 10 g yeast extract (Becton Dickinson 212750), 20 g glycerine 99%, ad 1000 mL aqua bidest]). Fusaricidins and compounds 1A and 1B were dissolved and diluted in DMSO. Different concentrations ranging from 60 μM down to 0.3 μM were pipetted into the microtiter plate. An aqueous suspension of 10^4 spores/ml was added. The plates were incubated at about 18° C. Fungal growth was determined by measuring the optical density at 600 nm in a microplate reader 3 and 7 days after the inoculation of the spores and compared to the untreated control (DMSO). IC50 (concentration [μM] of the respective metabolite required for 50% inhibition of fungal growth) has been determined thereafter.

[6] = tested on: Botrytis cinerea (BOTRCI); test: Fungal growth assay in 96 well plates; assay type: cell-based; settings: evaluation 7 d after inoculation, OD 600 nm, YBA, about 18° C.; read-out: Fungal growth inhibition (IC50) BOTRCI (7d)
Method: as §1

[7] = tested on: important fungal diseases on crop plants; assay type: in vivo; settings: metabolites; for controlling important fungal diseases on crop plants: dose levels as low as 7.2 ppm; for antifungal efficacy compared with Fusaricidin A, B and D: glasshouse trials
[8] = tested on: Fusarium graminearum (GIBBZE); assay type: in vivo; settings: for % efficacy (% fungal attack): head blight on wheat, protective application, metabolite conc. 360 ppm, visually assessed 5-7 days after inoculation
[9] = tested on: clinically relevant fungi and gram-positive bacteria such a Staphylococcus aureus; settings: ChemMedChem 7, 871-882, 2012; cited from earlier work
[10] = tested on: Alternaria solani (ALTESO); settings: in vivo
[11] = evaluation 3 d after inoculation, read-out: Fungal growth inhibition (IC50) ALTESO (3 d)
[12] = evaluation 7 d after inoculation, read-out: Fungal growth inhibition (IC50) ALTESO (7 d)

SMILES	% efficacy PHYTIN [1]	% efficacy (% fungal attack) [1]	% efficacy BOTRCI [2]	% efficacy PHAKPA [3]	% efficacy (% fungal attack) [4]	pIC50 [5, 11]	pIC50 [5, 12]	pIC50 [6]	controlling important fungal diseases on crop plants [7]	antifungal efficacy compared with Fusaricidin A, B and D [7]	% efficacy (% fungal attack) [8]	MIC value range [9]	% efficacy ALTESO [10]	% efficacy GIBBZE ([8]; in planta, 360 ppm, assessed 5-7 days after inoculation)
CCC(C)C1NC(=O)C(NC(=O)CC(O)CCCCCCCCCCCCNC(=N)N)C(C)OC(=O)C(C)NC(=O)C(CCC(N)=O)NC(=O)C(C(C)O)NC(=O)C(Cc2ccc(O)cc2)NC1=O (stereo not shown) [Compound 1B] ({Pentadecanoyl(3ξ-OH,15-Gua)}-TIYTQA; ester 1-C; configuration not given here)	100%	44%	97% and 100%	97%	80%	6.22	6.40	6.40	effective	higher antifungal efficacy than Fusaricidin A, B and D	–	–	–	–
CC(C)[C@@H]1NC(=O)[C@@H](C(C)C)NC(=O)[C@@H](NC(=O)CC(O)CCCCCCCCCCCCN=C(N)N)C(C)OC(=O)[C@@H](C)NC(=O)[C@@H](CCC(N)=O)NC(=O)[C@@H]([C@H](C)O)NC1=O (stereo in doubt) [Compound 5B, fusaricidin B]	–	4%	–	–	–	5.96	6.22	6.22	–	–	0%	–	–	–
CC(C)[C@@H]1NC(=O)[C@@H](C(C)C)NC(=O)[C@@H](NC(=O)CC(O)CCCCCCCCCCCCN=C(N)N)[C@@H](C)OC(=O)[C@@H](C)NC(=O)[C@@H](CC(N)=O)NC(=O)[C@@H]([C@@H](C)O)NC1=O (stereo partly shown) [Compound 5A, fusaricidin A] ({Pentadecanoyl(3ξ-OH,15-Gua)}-T[dV]V[d(aThr)][dN][dA]; ester 1-C)	–	15%	–	–	–	5.89	6.15	6.30	–	–	31%	0.78 to 3.12 µg/mL	–	–
CC1OC(=O)[C@@H](C)NC(=O)[C@@H](CCC(N)=O)NC(=O)[C@@H]([C@H](C)O)NC(=O)C(Cc2ccc(O)cc2)NC(=O)[C@@H](C(C)C)NC(=O)[C@H]1NC(=O)CC(O)CCCCCCCCCCCCN=C(N)N (stereo partly shown) [Compound 2B, fusaricidin D] ({Pentadecanoyl(3ξ-OH,15-Gua)}-[Thr(3ξ)][dV][ξY][dT][dQ][dA]; ester 1-C)	–	0%	–	–	50%	5.96	6.22	6.30	–	–	–	–	–	–
CCC(C)C1NC(=O)C(NC(=O)CC(O)CCCCCCCCCCCCNC(=N)N)C(C)OC(=O)C(C)NC(=O)C(CC(N)=O)NC(=O)C(C(C)O)NC(=O)C(Cc2ccc(O)cc2)NC1=O (stereo not shown) [Compound 1A] ({Pentadecanoyl(3ξ-OH,15-Gua)}-TIYTNA; ester 1-C; configuration not given here)	100%	–	99% and 97%	95%	–	6.22	6.30	6.52	effective	higher antifungal efficacy than Fusaricidin A, B and D	49%	–	74%	49%
